{
  "source": "paper PMC11129182",
  "about": "“Development of Inhibitors, Probes, and PROTAC Provides a Complete Toolbox to Study PARK7 in the Living Cell” (Journal of Medicinal Chemistry, 2024)",
  "key": {"[1]": {"tested_on": "A549 cells", "test": "Cell viability assay (CellTiter-Blue)", "format": "cell-based, human", "details": "up to 5 μM, 72 h incubation", "procedure": "5 × 10^3 A549 cells were seeded into 96-well plates. The following day, the indicated final concentrations of JYQ-164 and JYQ-173 were added to the cells, and DMSO was used as a control. Inhibitors were renewed at 36 h, and cells were incubated with them an additional 36 h. Cell viability was measured using the CellTiter-Blue viability assay (Promega). Relative survival was normalized to the DMSO-treated sample and corrected for background signal. page 8: Figure S6. Cytotoxicity assay for JYQ-164 and JYQ-173 in A549 cells. ( A) PARK7 engagement of JYQ -164 and JYQ-173 in A459 cells. A549 cells were incubated with […] The reactions were stopped by addition of NuPAGE™ LDS sample buffer (4x) , followed by cell lysis, SDS-PAGE, fluorescence scanning, and immunoblott in g against PARK7 and β-actin. β-actin was used as a loading control. (B) A549 cells were incubated with indicated concentration of JYQ-164 (left panel) or JYQ-173 (right panel) for 72 h where the inhibitors were renewed after 36 h. Cell viability was measured using the CellTiter-Blue assay. Relative viability was normalized to untreated control and corrected for background signal. S8 (1 picture or pasted object on this page, not shown here)"}, "[2]": {"target": "T1, reactive cysteine sites of other proteins in A549 cells (Homo sapiens, UniProt O60664)", "T1 sequence (O60664 1-434)": "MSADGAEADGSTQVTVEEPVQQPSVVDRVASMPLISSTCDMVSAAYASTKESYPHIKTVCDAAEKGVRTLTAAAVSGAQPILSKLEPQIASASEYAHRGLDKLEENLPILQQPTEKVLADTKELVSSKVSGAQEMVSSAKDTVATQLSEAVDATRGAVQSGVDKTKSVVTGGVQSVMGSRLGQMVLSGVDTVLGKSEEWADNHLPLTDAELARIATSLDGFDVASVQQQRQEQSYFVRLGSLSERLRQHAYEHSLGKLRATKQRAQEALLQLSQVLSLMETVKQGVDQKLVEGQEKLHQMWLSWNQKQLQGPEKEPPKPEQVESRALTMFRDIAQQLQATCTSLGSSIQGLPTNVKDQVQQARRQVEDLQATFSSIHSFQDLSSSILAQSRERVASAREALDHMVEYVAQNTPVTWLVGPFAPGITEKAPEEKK", "details": "4 h, O60664_C39 Perilipin-3", "excerpt": "(§1) Further, the samples were digested with tosylsulfonyl phenylalanyl chloromethyl ketone (TPCK)-treated trypsin and endoGluC to increase the coverage of protein sequences, especially the PARK7 peptide containing Cys106 residue. Peptides generated by digestion from replicates of each sample were labeled using TMT16-plex to perform tandem mass tag (TMT)-based quantitative proteomics profiling. Following the TMT labeling, all samples were pooled and the peptides conjugated to the DBIA probe were enriched by streptavidin beads and analyzed by LC-MS/MS (Figure 3A). […] All cysteines were represented with the shortest peptide by using the average CR values of all the peptides with the same modified cysteine from the same protein in the same condition.[16],[27],[28]\n(§2) A549 cells were seeded into 10 cm plates in 10 mL of media. […] The cells were then washed two times with cold PBS (1 mL per 10 cm plate) and collected by scraping them with a cell scraper. Cells were lysed by sonication in ice-cold PBS and centrifuged at 15,000 rpm for 2 min to remove cell debris. The BCA Gold protein assay (Thermo Fisher Scientific) was performed to determine protein concentration. Each sample (100 μg) was labeled with 500 μM DBIA probe for 1 h in the dark at room temperature (RT). Excess DBIA and disulfide bonds were quenched and reduced, respectively, using 5 mM dithiothreitol (DTT) for 30 min in the dark at RT. Reduced disulfide bonds were alkylated using 20 mM iodoacetamide for 30 min in the dark at RT. […] Digested peptides were labeled with TMTpro16-plex reagents (Thermo Fisher Scientific) in a 1:4 ratio by mass (peptides/TMT reagents) for 1 h at RT. Excess TMT reagent was quenched with 5 μL 6% hydroxylamine for 15 min at RT. All samples were then pooled and lyophilized.\n(§3) Nonspecific binding peptides were washed away using the following procedure: 3 × 1 mL of PBS pH 7.4, 2 × 1 mL of PBS with 0.1% SDS pH 7.4, and 3 × 1 mL of HPLC-grade water. DBIA probe-containing peptides were eluted using 700 μL of 50% acetonitrile in 0.1% TFA, lyophilized using a Speedvac, and desalted using a handmade mini-SPE column (10% sorbent material of a Waters, OASIS 1 cm^3 HLB 30 mg cartridge). Column was equilibrated with 200 μL of 90% acetonitrile and 3 × 200 μL of 10 mM NH4HCO3 pH 8.4. The dried sample was dissolved in 200 μL of 10 mM NH4HCO3 pH 8.4, loaded onto the column, washed 3x with 200 μL of 10 mM NH4HCO3 pH 8.4, and eluted into 3 fractions with 150 μL of 10, 20, and 50% acetonitrile (in 10 mM NH4HCO3). Samples were then lyophilized.\n(§4) 2.2.04 (www.matrixscience.com) for protein identification. Mascot searches were done with 10 ppm and 0.02 Da deviation for the precursor and fragment mass, respectively, and the enzymes trypsin and EndoGluC was specified, up to three missed cleavages were allowed. Methionine oxidation, acetyl (protein N-term), and DBIA on Cys were set as a variable modification. Carbamidomethyl on Cys and TMTpro on Lys and N-term were set as a fixed modification. Peptides with an FDR <1% were accepted. Peptides were only retained, if they were quantified and if there was exactly one DBIA modification on the peptide. The values for each TMT channel were normalized to the average of the values for the DMSO samples for the same peptide, and these values were named CR. For each peptide, the first entry of the Master Protein Accessions column was chosen as the Master Protein Accession, and the residue number of the cysteine modified by DBIA within the entire protein sequence was determined. Using this information, each peptide was assigned an identifier consisting of the Master Protein Accession and the residue number of the modified cysteine to assign each peptide to the respective modified cysteine residue. Within each replicate, CR values for all peptides with the same identifier (and thus the same modified cysteine residue) were combined by averaging and only the shortest Annotated Sequence was kept as the final Annotated Sequence."}, "[3]": {"target": "reactive cysteine sites of other proteins in A549 cells (Homo sapiens, UniProt P04080)", "sequence (P04080 whole entry)": "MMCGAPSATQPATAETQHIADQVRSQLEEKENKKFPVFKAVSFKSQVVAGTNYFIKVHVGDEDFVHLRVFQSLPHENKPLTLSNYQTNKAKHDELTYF", "details": "4 h, P04080_C3 Cystatin-B", "excerpt": "as §1, §2, §3, §4"}, "[4]": {"target": "reactive cysteine sites of other proteins in A549 cells (Homo sapiens, UniProt P40222)", "sequence (P40222 whole entry)": "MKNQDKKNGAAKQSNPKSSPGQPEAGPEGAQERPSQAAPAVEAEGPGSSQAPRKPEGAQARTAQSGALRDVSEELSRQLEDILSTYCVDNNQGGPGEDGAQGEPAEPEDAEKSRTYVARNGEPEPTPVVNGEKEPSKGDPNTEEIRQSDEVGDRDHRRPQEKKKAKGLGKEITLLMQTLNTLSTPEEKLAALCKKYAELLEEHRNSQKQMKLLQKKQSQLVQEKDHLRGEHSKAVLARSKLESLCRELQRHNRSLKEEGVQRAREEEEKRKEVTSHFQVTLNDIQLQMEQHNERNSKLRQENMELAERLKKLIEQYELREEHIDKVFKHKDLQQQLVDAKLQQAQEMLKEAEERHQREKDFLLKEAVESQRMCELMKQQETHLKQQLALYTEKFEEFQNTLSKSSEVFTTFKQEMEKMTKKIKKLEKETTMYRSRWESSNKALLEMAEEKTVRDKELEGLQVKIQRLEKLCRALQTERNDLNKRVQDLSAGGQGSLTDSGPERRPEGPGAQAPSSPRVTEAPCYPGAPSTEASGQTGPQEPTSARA", "details": "4 h, P40222_C87 Alpha-taxilin", "excerpt": "as §1, §2, §3, §4"}, "[5]": {"target": "reactive cysteine sites of other proteins in A549 cells (Homo sapiens, UniProt Q13085)", "details": "4 h, Q13085_C1297 Acetyl-CoA carboxylase 1", "excerpt": "as §1, §2, §3, §4"}},
  "note": "Like-named read-outs stand apart in the source and are kept apart here.",
  "data": [
    {"smiles": "N#CN1CC[C@@H](C(=O)Nc2nc3c(s2)CN(C(=O)c2cc(-n4ccnn4)ccc2F)CC3)C1", "note": "[Compound 84, (R)-1-Cyano-N-(5-(2-fluoro-5-(1H-1,2,3-triazol-1-yl)benzoyl)-4,5,6,7-tetrahydrothiazolo[5,4-c]pyridin-2-yl)pyrrolidine-3-carboxamide]", "values": [
      {"measurement": "cytotoxicity", "setting": "[1]", "result": "did not show any cytotoxicity"},
      {"measurement": "Average log2 CR (DMSO/inhibitor)", "setting": "[2]; A549, 0.5 µM", "result": 0.4419},
      {"measurement": "Average log2 CR (DMSO/inhibitor)", "setting": "[2]; A549, 5 µM", "result": 1.439},
      {"measurement": "Average log2 CR (DMSO/inhibitor)", "setting": "[3]; A549, 0.5 µM", "result": 0.9051},
      {"measurement": "Average log2 CR (DMSO/inhibitor)", "setting": "[3]; A549, 5 µM", "result": 1.676},
      {"measurement": "Average log2 CR (DMSO/inhibitor)", "setting": "[4]; A549, 0.5 µM", "result": 0.7392},
      {"measurement": "Average log2 CR (DMSO/inhibitor)", "setting": "[4]; A549, 5 µM", "result": 1.414},
      {"measurement": "Average log2 CR (DMSO/inhibitor)", "setting": "[5]; A549, 0.5 µM", "result": 0.6874},
      {"measurement": "Average log2 CR (DMSO/inhibitor)", "setting": "[5]; A549, 5 µM", "result": 1.886}
    ]}
  ]
}
